Here are results for one molecule from ChEMBL document CHEMBL4177603 (Bioorg Med Chem Lett, 2017).

A short description of series [1]: Solubility of the compound in aqueous buffer at pH 4.2. In kind it is physicochemical.
Series [2] has as its target T1, Sodium channel protein type 5 subunit alpha (Homo sapiens, UniProt Q14524). As to the kind of experiment: Inhibition of human Nav1.5 expressed in HEK cells by automated patchXpress electrophysiology method. In kind it is ADME, cell-based.
Series [3] concerns the target Cytochrome P450 2C9 (Homo sapiens, UniProt P11712). As to the kind of experiment: Inhibition of CYP2C9 (unknown origin). In kind it is ADME.
In series [4] the target is Cytochrome P450 2D6 (Homo sapiens, UniProt P10635). The experiment in a line: Inhibition of CYP2D6 (unknown origin). In kind it is ADME.
The nature of series [5]: Intrinsic clearance in mouse hepatocytes assessed per million cells. In kind it is ADME, cell-based, Hepatocyte. To be noted: read-out: CLH.
For series [6], the target named is Adenosine receptor A1 (Homo sapiens) (UniProt P30542). As to the kind of experiment: Agonist activity at recombinant human adenosine A1 receptor expressed in mouse BA/F3 cells assessed as increase in calcium flux at 10 uM by spectrophotometric method relative to control. In kind it is functional, cell-based. (In general: Calcium assays in cells follow changes in intracellular calcium, usually with a dye or a luminescent sensor.)

The target of series [7] is Alpha-2A adrenergic receptor (Homo sapiens) (UniProt P08913). As to the kind of experiment: Agonist activity at recombinant human alpha2a receptor at 10 uM relative to control. It is filed as functional.
The target of series [8] is Type-1 angiotensin II receptor (Homo sapiens) (UniProt P30556). As to the kind of experiment: Agonist activity at recombinant human AT1 receptor expressed in HEK293 cells assessed as increase in calcium flux at 10 uM by spectrophotometric method relative to control. It is filed as functional, cell-based.
For series [9], the target named is D(2) dopamine receptor (Homo sapiens) (UniProt P14416). The experiment in a line: Agonist activity at recombinant human D2S receptor expressed in HEK293 cells assessed as effect on impedance at 10 uM by cellular dielectric spectroscopic method relative to control. It is filed as cell-based.
Series [10] deals with Histamine H1 receptor (Homo sapiens) (UniProt P35367). As to the kind of experiment: Agonist activity at human H1 receptor expressed in HEK293 cells assessed as increase in calcium flux at 10 uM by fluorimetric method relative to control. In kind it is functional, cell-based.
Series [11] deals with D(1A) dopamine receptor (Homo sapiens) (UniProt P21728). The experiment in a line: Antagonist activity at recombinant human D1 receptor expressed in CHOK1 cells assessed as inhibition of dopamine-induced cAMP accumulation at 10 uM after 30 mins by HTRF assay relative to control. In kind it is functional, cell-based. (In general: Changes in cAMP serve as a functional read-out for many G protein-coupled receptors.)

Series [12] deals with Histamine H1 receptor (Homo sapiens) (UniProt P35367). As to the kind of experiment: Antagonist activity at human H1 receptor expressed in HEK293 cells assessed as inhibition of histamine-induced calcium flux at 10 uM by fluorimetric method relative to control. In kind it is functional, cell-based.
The species named for series [13] is Homo sapiens. As to the kind of experiment: Displacement of [125I]alpha-bungarotoxin from human muscle type nAChR at 10 uM after 120 mins by scintillation counting method.
The target in series [14] is cGMP-inhibited 3',5'-cyclic phosphodiesterase 3B (Homo sapiens) (UniProt Q13370). As to the kind of experiment: Inhibition of recombinant human PDE3B at 10 uM using [3H]cAMP as substrate measured after 20 mins by scintillation counting method relative to control.
The target of series [15] is Tyrosine-protein kinase Lck (Homo sapiens) (UniProt P06239). As to the kind of experiment: Inhibition of recombinant human LCK at 10 uM using Ulight-Poly GAT[EAY(1:1:1)]n as substrate after 10 mins by LANCE assay. For orientation: Time-resolved FRET reads energy transfer from a long-lived donor to a nearby acceptor.
Series [16] addresses Glucocorticoid receptor (Homo sapiens) (UniProt P04150). As to the kind of experiment: Displacement of [3H]dexamethasone from human glucocorticoid receptor at 10 uM after 360 mins by scintillation counting method.
Series [17] deals with T1, Sodium channel protein type 5 subunit alpha. As to the kind of experiment: Inhibition of human Nav1.5 by Q-patch clamp electrophysiology method.
The nature of series [18]: Displacement of [3H]diltiazem from L-type calcium channel diltiazem binding site in rat brain after 120 mins by scintillation counting method.

Histamine H1 receptor (Homo sapiens), sequence (P35367 whole entry): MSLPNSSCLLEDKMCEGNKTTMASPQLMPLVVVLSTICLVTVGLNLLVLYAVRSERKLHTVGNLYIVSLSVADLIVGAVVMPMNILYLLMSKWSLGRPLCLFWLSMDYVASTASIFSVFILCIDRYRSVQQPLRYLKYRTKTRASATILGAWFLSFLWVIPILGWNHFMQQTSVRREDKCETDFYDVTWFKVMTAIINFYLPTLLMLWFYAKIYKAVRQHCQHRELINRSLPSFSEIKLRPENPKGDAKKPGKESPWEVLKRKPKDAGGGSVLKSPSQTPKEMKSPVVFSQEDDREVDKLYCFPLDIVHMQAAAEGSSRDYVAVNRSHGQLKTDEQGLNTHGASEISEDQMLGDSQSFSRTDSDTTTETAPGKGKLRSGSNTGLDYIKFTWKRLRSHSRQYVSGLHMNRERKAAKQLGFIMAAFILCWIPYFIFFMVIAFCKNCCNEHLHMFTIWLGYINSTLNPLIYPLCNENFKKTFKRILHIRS
T1 sequence (Q14524 whole entry): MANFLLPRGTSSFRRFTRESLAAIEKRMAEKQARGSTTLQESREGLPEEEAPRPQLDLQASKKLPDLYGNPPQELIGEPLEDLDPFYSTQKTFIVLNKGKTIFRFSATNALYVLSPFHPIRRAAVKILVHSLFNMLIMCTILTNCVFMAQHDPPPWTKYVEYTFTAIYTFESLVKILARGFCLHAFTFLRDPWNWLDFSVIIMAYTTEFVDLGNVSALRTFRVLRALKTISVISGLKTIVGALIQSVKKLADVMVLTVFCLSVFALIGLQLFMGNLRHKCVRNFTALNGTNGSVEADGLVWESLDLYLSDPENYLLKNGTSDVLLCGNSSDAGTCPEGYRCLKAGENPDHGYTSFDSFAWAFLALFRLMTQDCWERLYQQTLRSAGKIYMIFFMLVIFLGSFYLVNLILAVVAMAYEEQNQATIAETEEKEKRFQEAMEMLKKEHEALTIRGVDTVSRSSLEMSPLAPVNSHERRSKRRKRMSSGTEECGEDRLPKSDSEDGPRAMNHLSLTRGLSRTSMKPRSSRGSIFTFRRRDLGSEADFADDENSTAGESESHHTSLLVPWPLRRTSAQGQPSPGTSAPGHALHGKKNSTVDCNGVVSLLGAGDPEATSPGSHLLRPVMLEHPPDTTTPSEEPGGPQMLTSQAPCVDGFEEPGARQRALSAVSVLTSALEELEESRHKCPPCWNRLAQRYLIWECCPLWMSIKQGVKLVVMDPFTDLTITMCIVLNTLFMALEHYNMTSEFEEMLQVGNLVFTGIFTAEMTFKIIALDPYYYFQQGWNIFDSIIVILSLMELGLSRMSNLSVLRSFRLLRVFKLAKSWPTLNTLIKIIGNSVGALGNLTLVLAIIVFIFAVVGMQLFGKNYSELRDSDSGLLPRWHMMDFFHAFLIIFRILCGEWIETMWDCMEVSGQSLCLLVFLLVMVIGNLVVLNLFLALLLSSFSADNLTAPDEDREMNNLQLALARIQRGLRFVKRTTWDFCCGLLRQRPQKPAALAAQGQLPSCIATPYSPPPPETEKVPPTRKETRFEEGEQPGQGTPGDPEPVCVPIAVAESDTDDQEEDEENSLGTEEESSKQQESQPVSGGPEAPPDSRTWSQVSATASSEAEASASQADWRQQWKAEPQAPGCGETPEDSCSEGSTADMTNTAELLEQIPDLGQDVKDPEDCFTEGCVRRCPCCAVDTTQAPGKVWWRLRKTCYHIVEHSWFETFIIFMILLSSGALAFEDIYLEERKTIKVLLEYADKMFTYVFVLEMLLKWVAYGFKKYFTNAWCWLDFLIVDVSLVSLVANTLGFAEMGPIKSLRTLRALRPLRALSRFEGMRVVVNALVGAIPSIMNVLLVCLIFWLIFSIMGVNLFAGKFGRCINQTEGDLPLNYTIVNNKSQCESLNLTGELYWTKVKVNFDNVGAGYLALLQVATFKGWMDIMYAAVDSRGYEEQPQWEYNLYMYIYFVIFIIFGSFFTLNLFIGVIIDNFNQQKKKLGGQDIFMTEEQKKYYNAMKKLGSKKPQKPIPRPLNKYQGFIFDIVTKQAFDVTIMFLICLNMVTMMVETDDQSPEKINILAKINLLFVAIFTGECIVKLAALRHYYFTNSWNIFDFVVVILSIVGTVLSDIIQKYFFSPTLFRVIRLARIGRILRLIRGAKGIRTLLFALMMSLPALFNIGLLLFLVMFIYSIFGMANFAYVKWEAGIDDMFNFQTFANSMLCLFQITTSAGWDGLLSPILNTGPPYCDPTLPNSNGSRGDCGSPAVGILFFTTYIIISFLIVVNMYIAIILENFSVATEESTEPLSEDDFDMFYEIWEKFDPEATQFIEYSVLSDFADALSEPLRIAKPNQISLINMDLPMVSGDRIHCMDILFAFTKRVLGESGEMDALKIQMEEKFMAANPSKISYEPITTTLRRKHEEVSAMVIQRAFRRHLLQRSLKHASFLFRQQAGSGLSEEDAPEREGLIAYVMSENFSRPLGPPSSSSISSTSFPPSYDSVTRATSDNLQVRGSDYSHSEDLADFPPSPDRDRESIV
Cytochrome P450 2C9, sequence (P11712 whole entry): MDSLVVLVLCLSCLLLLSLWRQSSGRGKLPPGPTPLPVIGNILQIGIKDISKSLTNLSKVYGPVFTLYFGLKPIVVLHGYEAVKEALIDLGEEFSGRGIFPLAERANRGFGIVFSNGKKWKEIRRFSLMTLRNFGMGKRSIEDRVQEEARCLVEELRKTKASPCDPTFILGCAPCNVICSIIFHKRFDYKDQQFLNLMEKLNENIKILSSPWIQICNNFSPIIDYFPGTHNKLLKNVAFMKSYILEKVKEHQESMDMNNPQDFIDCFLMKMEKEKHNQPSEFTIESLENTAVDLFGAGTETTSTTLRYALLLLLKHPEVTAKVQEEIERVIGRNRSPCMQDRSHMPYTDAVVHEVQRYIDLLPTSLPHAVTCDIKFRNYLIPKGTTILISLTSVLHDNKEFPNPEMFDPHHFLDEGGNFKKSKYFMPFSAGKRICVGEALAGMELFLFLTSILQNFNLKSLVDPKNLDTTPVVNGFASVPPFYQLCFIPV
cGMP-inhibited 3',5'-cyclic phosphodiesterase 3B (Homo sapiens), sequence (Q13370 whole entry, looked up): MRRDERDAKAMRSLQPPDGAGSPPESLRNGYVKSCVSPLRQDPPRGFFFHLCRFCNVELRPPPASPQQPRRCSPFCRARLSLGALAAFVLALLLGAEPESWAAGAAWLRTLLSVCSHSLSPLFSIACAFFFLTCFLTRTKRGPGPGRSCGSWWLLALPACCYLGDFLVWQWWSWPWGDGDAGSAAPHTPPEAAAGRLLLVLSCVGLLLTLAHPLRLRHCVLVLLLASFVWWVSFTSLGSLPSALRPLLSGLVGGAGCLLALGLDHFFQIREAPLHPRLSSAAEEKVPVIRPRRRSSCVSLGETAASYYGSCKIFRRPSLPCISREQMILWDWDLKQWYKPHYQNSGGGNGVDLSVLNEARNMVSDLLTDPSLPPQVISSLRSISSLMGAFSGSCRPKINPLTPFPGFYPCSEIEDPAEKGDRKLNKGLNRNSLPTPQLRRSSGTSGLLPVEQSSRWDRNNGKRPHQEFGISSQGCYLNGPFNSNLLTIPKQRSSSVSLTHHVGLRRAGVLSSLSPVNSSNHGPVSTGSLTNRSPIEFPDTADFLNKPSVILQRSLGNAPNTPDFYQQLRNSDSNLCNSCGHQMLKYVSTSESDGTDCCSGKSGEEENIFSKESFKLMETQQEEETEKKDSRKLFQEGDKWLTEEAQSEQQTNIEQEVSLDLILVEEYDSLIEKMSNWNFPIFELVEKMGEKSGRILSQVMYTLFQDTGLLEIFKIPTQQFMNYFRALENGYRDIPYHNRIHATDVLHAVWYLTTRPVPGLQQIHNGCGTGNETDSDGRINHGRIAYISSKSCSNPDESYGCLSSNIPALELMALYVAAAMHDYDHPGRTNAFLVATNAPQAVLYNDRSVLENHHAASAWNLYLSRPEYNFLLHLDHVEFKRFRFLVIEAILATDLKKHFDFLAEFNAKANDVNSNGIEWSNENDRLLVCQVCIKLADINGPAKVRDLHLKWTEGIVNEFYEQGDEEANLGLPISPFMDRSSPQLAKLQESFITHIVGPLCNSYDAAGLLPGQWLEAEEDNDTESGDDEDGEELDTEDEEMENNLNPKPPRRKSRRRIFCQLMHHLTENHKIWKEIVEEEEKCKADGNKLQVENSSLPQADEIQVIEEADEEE
D(2) dopamine receptor (Homo sapiens), sequence (P14416 whole entry): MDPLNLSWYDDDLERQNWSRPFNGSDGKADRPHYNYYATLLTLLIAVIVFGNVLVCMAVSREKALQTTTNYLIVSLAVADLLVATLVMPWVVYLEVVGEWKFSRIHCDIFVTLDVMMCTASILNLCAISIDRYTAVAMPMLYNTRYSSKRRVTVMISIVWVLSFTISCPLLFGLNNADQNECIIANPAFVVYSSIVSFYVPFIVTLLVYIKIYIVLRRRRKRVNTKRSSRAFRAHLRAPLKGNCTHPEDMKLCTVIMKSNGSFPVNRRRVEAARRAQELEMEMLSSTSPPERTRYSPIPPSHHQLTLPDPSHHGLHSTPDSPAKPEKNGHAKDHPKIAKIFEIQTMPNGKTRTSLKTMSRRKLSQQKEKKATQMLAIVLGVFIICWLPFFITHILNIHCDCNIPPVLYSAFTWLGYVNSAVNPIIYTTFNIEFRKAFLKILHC
Type-1 angiotensin II receptor (Homo sapiens), sequence (P30556 whole entry): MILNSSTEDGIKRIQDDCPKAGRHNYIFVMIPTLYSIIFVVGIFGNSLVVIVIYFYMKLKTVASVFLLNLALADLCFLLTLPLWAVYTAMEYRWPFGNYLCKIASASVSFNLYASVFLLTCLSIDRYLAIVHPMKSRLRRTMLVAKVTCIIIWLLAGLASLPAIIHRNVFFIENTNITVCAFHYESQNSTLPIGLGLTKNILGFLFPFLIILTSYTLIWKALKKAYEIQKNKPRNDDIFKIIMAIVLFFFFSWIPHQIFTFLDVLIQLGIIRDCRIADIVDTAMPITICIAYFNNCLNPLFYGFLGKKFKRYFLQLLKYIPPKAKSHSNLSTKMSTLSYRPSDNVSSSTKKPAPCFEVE

`N#Cc1cc(S(=O)(=O)Nc2ncns2)ccc1Oc1ccc(-c2cccc(C(F)(F)F)c2)cc1-c1ccnc(CNCCC2CCNCC2)c1` yielded a solubility in [1] of more than 1170 µg/mL. Besides, the IC50 in series [2] was 2 to 2.59 µM; in series [3] it was 3.75 µM; in series [4], 8.83 µM; in series [17], 12.8 µM; in [18], 5.3 µM. Besides, the hepatocyte CLint in series [5] was less than 3 µL/min/1e6 cells. In addition, the Activity in series [6] was 107%; in series [7], -7%; in series [8], -3%; in series [9], -2%; in series [10], 4%. The inhibition was 30% in series [11]; -5% in series [12]; 21% in series [13]; -1% in series [14]; 43% in [15]; 36.1% in series [16]. Moreover, the Ki in series [18] is 4.12 µM.

The solubility is the concentration that dissolves in the medium under given conditions. A higher solubility goes with much dissolved substance. One may read the IC50 as the concentration at which inhibition is half-maximal. The inhibition is the drop in the measured response relative to a control, in per cent. Usually Ki stands for the equilibrium dissociation constant of an inhibitor or competing ligand from its target.
